Measured values as given in patent US5350677A, “Method of assaying phosphatase with 3,4-dinitrophenylphosphate” (Iatron Laboratories, Inc., priority 1989, dated 1994).

Assays:
[1] = without solubilizing auxiliary agent; cited from earlier work
[2] = Stability (decomposition) of substrate in aqueous solution; assay type: physicochemical

| SMILES | solubility in water [1] | decomposition ratio ([2]; enzyme reaction conditions (pH 5, 37° C.) for one hour, 60 min) | stability of aqueous solution ([2]; under ice-cooling) |
| --- | --- | --- | --- |
| CC(=O)N[C@H]1[C@H](Oc2ccc([N+](=O)[O-])cc2Cl)O[C@H](CO)[C@@H](O)[C@@H]1O [2-chloro-4-nitrophenyl-N-acetyl-β-D-glucosaminide] | difficult to dissolve in water | – | – |
| CC(=O)N[C@H]1[C@H](Oc2ccc([N+](=O)[O-])c([N+](=O)[O-])c2)O[C@H](CO)[C@@H](O)[C@@H]1O [3,4-DNG, 3,4-dinitrophenyl-N-acetyl-β-D-glucosaminide] | – | 1.5% | stable |
